*1 amine or outer side, *2 acyl side, *3 side chain or, on linkers, in order; H or OH if unused. Where a SMILES comes first, the peptide text is derived from it. Bridges are numbered along the chain shown (N, C = ends). Roman numbers before positions name the chains, in order. [ ]: non-standard residue; d: D form. X1 = O=C(CCCCC(=O)[*:2])NCCCOCCOCCOCCCNC(=O)CCC(=O)[*:1]; NMeF = CN[C@@H](Cc1ccccc1)C(=O)O; NMeL = CN[C@@H](CC(C)C)C(=O)O; NMeV = CN[C@H](C(=O)O)C(C)C
Columns and labels:
[1] = Carboxyfluorescein dye leakage from LUVs, Aβ40; type: biochemical
Procedure: Smaller Aβ oligomers or protofibrils are more toxic than mature fibrils in AD progression due to their ability to disrupt membranes via pore formation.[37,38] […] To evaluate this, we performed a membrane leakage assay on carboxyfluorescein-loaded large unilamellar vesicles (LUVs).[38] The time required for Aβ40 oligomer and mature fibril formation is 12 h and 72 h, respectively (inferred from ThT assay, black curve, Fig. 2a), which directed us to set up the LUV leakage assay. […] The fluorescence intensity of complete dye release from LUVs by Triton X-100 served as a positive control (100% leakage), and untreated dye-loaded LUVs assisted as a negative control. […]
e. Time-resolved photoluminescence (TRPL) […]
μM. Then, 600 μL of peptide sample was placed in a 1 mL fluorescence cuvette and measure the excited state lifetime on Eddinburg FSP920 Instrument. f. […]
Prior to the analysis, samples were filtered through 0.45 µm PVDF membrane. […] For each sample, the analyses were recorded three times with 11 sub-runs using the multimodal mode. The Z-average diameter was calculated from the correlation function using Malvern technology software. g. […]
h. Carboxyfluorescein dye loaded Large Unilamellar Vesicles (LUVs) Leakage Study For leakage study, peptide and lipids were taken in 1:20 molar ratios, and the dye release was monitored by fluorescence emission. […]

SH-SY5Y cells = assay: MTT assay, Aβ40 induced cytotoxicity; type: cell-based, human; conditions: Aβ40 10 μM, 24 h
Procedure: 1.3. Methods for in vitro cell-based experiments
The human neuroblastoma cell line SH-SY5Y was obtained from the National Centre for Cell Science (NCCS, Pune, India). The cells were grown in DMEM, and Ham’s F12 nutrient mixture (DMEM/F12; 1:1) supplemented with 10% fetal bovine serum (FBS; Gibco, USA), 50 U/ml penicillin, 100 μg/ml streptomycin and incubated in a humidified atmosphere of 5% CO2 at 37°C. All experiments were carried […]
Each experiment was performed
Methylthiazol tetrazolium (MTT) reduction assay was used to measure the viability of cells.10 The SH-SY5Y cells were seeded at a density of 1.5 × 10^4 cells/well in a 96 well plate. To assess self-toxicity, cells […]
period 20µl of MTT reagent (5mg/ml in DPBS) was added to each well and incubated in a humidified atmosphere of 5% CO2 at 37°C for 4h. Formazan crystals (purple) are formed by the metabolically active cells by cleaving the yellow tetrazolium salt. After the incubation period, the MTT solution was aspirated, and 150µL of dimethyl sulfoxide (DMSO) was added to each well to dissolve the formazan precipitate.

Sprague-Dawley rats = assay: Acute and sub-chronic toxicity, mortality, behaviour and body weight; type: in vivo
Procedure: 24 male Sprague Dawley rats were randomly divided into three groups: control, SP1A, and SP1B. Each group contains 8 animals and administration of SP1was performed for 42 days through a tail vein by the following schedule: Control: Without any treatment.
Rats were sacrificed after 42 days of injection schedule and blood was collected for hematological and biochemical estimations. For the histopathological study, the liver and kidney were also isolated very carefully and checked for cytoarchitectural changes if any.
The body weights and volumes of SP1 to be administered were recorded for each animal. Prior to injection, the tail of the animal was warmed by using warm water circulating pad placed under the cage for 5-10 minutes to dilate the veins. A 25-gauge needle was inserted into the vein towards the direction of the head. The needle and syringe were kept parallel to the tail. […]
µg/kg and 500 µg/kg) was injected into the tail slowly. The needle was removed very carefully and gentle compression applied until bleeding was stopped. Animals were returned to their home cage. […]

Compound | dye leakage from LUVs ([1]; Aβ40 oligomers (12 h aged), until 100 min, untreated LUVs ∼9%, Triton X-100 = 100%) | dye leakage from LUVs ([1]; mature Aβ40 fibrils (72 h), 100 min, peptide:lipid 1:20) | cell population after Aβ40 alone (SH-SY5Y cells) | mortality and behavioral patterns (Sprague-Dawley rats; 100 and 500 μg kg−1, tail vein, 42 days) | body weight (Sprague-Dawley rats; 100 and 500 μg kg−1, days 7, 21, and 42, vs control)
Aβ40: commercially available Aβ40 peptide | ~40% | ~15% | significant reduction in the cell population |  | 
CC(C)C[C@H](NC(=O)CNC(=O)CCC(=O)NCCCOCCOCCOCCCNC(=O)CCCCC(=O)NCC(=O)N(C)[C@@H](CC(C)C)C(=O)N[C@H](C(=O)N(C)[C@@H](Cc1ccccc1)C(=O)N[C@@H](Cc1ccccc1)C(=O)N[C@@H](C)C(N)=O)C(C)C)C(=O)N(C)[C@H](C(=O)N[C@@H](Cc1ccccc1)C(=O)N(C)[C@@H](Cc1ccccc1)C(=O)N[C@@H](C)C(N)=O)C(C)C [SP1] (I: GL[NMeV]F[NMeF]A-NH2 / II: G[NMeL]V[NMeF]FA-NH2; linker I:N-II:N via X1) |  |  |  | causes neither mortality nor abnormal behavioral patterns in rats | did not observe any significant changes in the rats' body weight
